From PubChem BioAssay AID256 (DTP/NCI, 2004)
Where “and” joins values, the source holds several entries; their conditions need not be identical. Identical values can stand only once. Inconclusive results and toxic doses are left out. Rule for the calls: active = survival T/C of 150% or more; inactive = T/C below 125% in these data.

System: CD2F1 mice, L1210 leukemia ip, survival T/C
Test: NCI In Vivo Anticancer Drug Screen. Data for tumor model L1210 Leukemia (intraperitoneal) in CD2F1 (CDF1) mice
Conditions: endpoint: mean survival time, higher = longer survival
Method in brief: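 Ratio T/C, where T is the treated-group value and C the vehicle-dosed control value, from mice implanted with a transplantable tumor.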

[1] = dose: 100.0 mg/kg/injection, schedule: Q04DX003 (ip), vehicle: saline with Tween-80
[2] = dose: 200.0 mg/kg/injection, schedule: Q04DX003 (ip), vehicle: saline with Tween-80
[3] = dose: 400.0 mg/kg/injection, schedule: Q04DX003 (ip), vehicle: saline with Tween-80
[4] = dose: 100.0 mg/kg/injection, schedule: Q01DX001 (ip), vehicle: saline
[5] = dose: 200.0 mg/kg/injection, schedule: Q01DX001 (ip), vehicle: saline
[6] = dose: 400.0 mg/kg/injection, schedule: Q01DX001 (ip), vehicle: saline
[7] = dose: 75.0 mg/kg/injection, schedule: Q01DX001 (ip), vehicle: saline
[8] = dose: 100.0 mg/kg/injection, schedule: Q01DX001 (ip), vehicle: saline with Tween-80
[9] = dose: 100.0 mg/kg/injection, schedule: Q04DX002 (ip), vehicle: saline with Tween-80
[10] = dose: 200.0 mg/kg/injection, schedule: Q01DX001 (ip), vehicle: saline with Tween-80
[11] = dose: 200.0 mg/kg/injection, schedule: Q04DX002 (ip), vehicle: saline with Tween-80
[12] = dose: 400.0 mg/kg/injection, schedule: Q01DX001 (ip), vehicle: saline with Tween-80
[13] = dose: 400.0 mg/kg/injection, schedule: Q04DX002 (ip), vehicle: saline with Tween-80
[14] = dose: 100.0 mg/kg/injection, schedule: Q01DX009 (ip), vehicle: saline with Tween-80
[15] = dose: 200.0 mg/kg/injection, schedule: Q01DX009 (ip), vehicle: saline with Tween-80
[16] = dose: 400.0 mg/kg/injection, schedule: Q01DX009 (ip), vehicle: saline with Tween-80

Measured: T/C

CCCCCN1C(=O)CCC1=O
inactive: [1] 112 % of control | [2] 109 % of control | [3] 104 % of control

COc1cc2c(cc1O)C(O)CNC2 (stereo not drawn)
inactive: [4] 104 % of control | [5] 93 % of control | [6] 98 % of control

CCCC(CC)OC(=O)Nc1cccc2ccccc12 (stereo not drawn)
inactive: [4] 100 % of control | [5] 102 % of control | [6] 100 % of control

Cc1cc2c(ccc3c2ccc2cccc(C)c23)c2ccccc12
inactive: [7] 95 % of control | dose: 150.0 mg/kg/injection, schedule: Q01DX001 (ip), vehicle: saline 88 % of control | dose: 300.0 mg/kg/injection, schedule: Q01DX001 (ip), vehicle: saline 94 % of control

CCOC(=O)Cc1nc2ccccc2[nH]1
inactive: [8] 95 % of control | [9] 101 % of control | [1] 90 % of control and 102 % of control | [10] 95 % of control | [11] 93 % of control | [2] 93 % of control and 97 % of control | [12] 93 % of control | [13] 95 % of control | [3] 91 % of control

CC[C@]1(O)C[C@H](OC2CC(N(C)C)C(OC3CC(O)C(O)C(C)O3)C(C)O2)c2c(cc3c(c2O)C(=O)c2c(O)ccc(O)c2C3=O)[C@H]1C(=O)OC (stereo partly drawn)
inactive: dose: 0.12 mg/kg/injection, schedule: Q01DX009 (ip), vehicle: Klucel (hydroxypropylcellulose) (HPC) 114 % of control and 109 % of control and 110 % of control

Cc1ccc(NC(=S)N2CCCC2)cc1
inactive: [14] 97 % of control | [15] 91 % of control | [16] 95 % of control

CN(CCC(=O)N(C)CCC1CCCCC1)CCC1CCCCC1
inactive: [7] 98 % of control

COC(=O)C(OC)c1ccc2ccccc2c1 (stereo not drawn)
inactive: [9] 98 % of control | [11] 98 % of control | [13] 102 % of control

CCOC(=O)Nc1cc(C(F)(F)F)cc(C(F)(F)F)c1
inactive: [14] 94 % of control | [15] 94 % of control | [16] 96 % of control

Cc1cc(C)c(CN)cc1CN
inactive: dose: 25.0 mg/kg/injection, schedule: Q04DX003 (ip), vehicle: saline with Tween-80 91 % of control | dose: 50.0 mg/kg/injection, schedule: Q04DX003 (ip), vehicle: saline with Tween-80 88 % of control | [1] 96 % of control

O=C1c2ccccc2C(=O)N1CCCCN1C(=O)c2ccccc2C1=O
inactive: [8] 90 % of control | [10] 87 % of control | [12] 90 % of control

COc1ccccc1C(=Nc1ccccc1)N(O)c1ccccc1
inactive: dose: 2.5 mg/kg/injection, schedule: Q01DX001 (ip), vehicle: saline with Tween-80 114 % of control | dose: 2.5 mg/kg/injection, schedule: Q04DX003 (ip), vehicle: saline with Tween-80 101 % of control | dose: 5.0 mg/kg/injection, schedule: Q01DX001 (ip), vehicle: saline with Tween-80 112 % of control | dose: 5.0 mg/kg/injection, schedule: Q04DX003 (ip), vehicle: saline with Tween-80 101 % of control | dose: 10.0 mg/kg/injection, schedule: Q01DX001 (ip), vehicle: saline with Tween-80 114 % of control | dose: 10.0 mg/kg/injection, schedule: Q04DX003 (ip), vehicle: saline with Tween-80 98 % of control

COc1ccc(OC)cc1
inactive: dose: 100.0 mg/kg/injection, schedule: Q01DX001 (ip), vehicle: other 103 % of control | dose: 200.0 mg/kg/injection, schedule: Q01DX001 (ip), vehicle: other 94 % of control | dose: 400.0 mg/kg/injection, schedule: Q01DX001 (ip), vehicle: other 101 % of control

O=C(O)CSc1nc2ccccc2s1
inactive: dose: 25.0 mg/kg/injection, schedule: Q01DX009 (ip), vehicle: saline with Tween-80 96 % of control | dose: 50.0 mg/kg/injection, schedule: Q01DX009 (ip), vehicle: saline with Tween-80 95 % of control | [14] 97 % of control | [1] 93 % of control | [2] 94 % of control | [3] 96 % of control
